These are literature values, as cited in patent US20170368135A1, “HERBAL DRUG COMPOSITION CONTAINING PROBIOTIC AND OPTIONALLY PREBIOTIC AND/OR ACTIVE PHARMACEUTICAL INGREDIENT” (VITALIVA, LLC, priority 2016, published 2017).

One data set deals with alcoholic liver disease. The note with it: in vivo.

Turning to `COc1cc(/C=C/C(=O)CC(=O)/C=C/c2ccc(O)c(OC)c2)ccc1O` [Curcumin], in the data set with NF-κB in Kupffer cells, the “endotoxin-mediated activation of NF-κB” value was “phsyciological changes induced by alcohol. Curcumin blocks”. In addition, in the data set with NF-κB in Kupffer cells (Kupffer cells), the “expression of cytokines, chemokines, COX-2, and iNOS” value was “endotoxin-mediated activation of NF-κB and suppresses the expression”. Further, the “physiological changes induced by alcohol” value in the data set on alcoholic liver disease is recorded as “dietary spice turmeric, shows that curcimin administration prevented”.
